From US20080125475A1 (priority 2006, published 2008)
Read-outs that look alike come from different tables or passages of the source.

Columns and labels:
[1] = tested on: mice; conditions: mouse, in vivo
[2] = molecular target: T1, ORL1 receptor (Homo sapiens, UniProt P41146); experiment: biochemical; assay type: binding
T1 construct: expressed in transfected cells; host or cells: CHO (recombinant CHO-ORL1 cells), membranes

[3] = tested on: Sprague-Dawley rats; experiment: animal or person; assay type: in vivo, rat; conditions: iv
[4] = tested on: Sprague-Dawley rats; experiment: animal or person; assay type: in vivo; conditions: Rattus norvegicus, iv, read-out: ED50 acute

T1 sequence (P41146 whole entry): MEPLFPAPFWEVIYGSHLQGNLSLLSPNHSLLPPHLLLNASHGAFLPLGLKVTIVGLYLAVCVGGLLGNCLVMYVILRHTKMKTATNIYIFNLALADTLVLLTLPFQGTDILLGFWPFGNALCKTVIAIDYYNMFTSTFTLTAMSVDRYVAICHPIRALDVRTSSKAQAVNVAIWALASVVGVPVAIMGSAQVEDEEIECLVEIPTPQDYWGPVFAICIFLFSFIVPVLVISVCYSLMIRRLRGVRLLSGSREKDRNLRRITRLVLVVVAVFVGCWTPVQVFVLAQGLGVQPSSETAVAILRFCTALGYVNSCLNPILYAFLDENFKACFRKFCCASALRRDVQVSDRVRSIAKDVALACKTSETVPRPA

SMILES: CCC(=O)C(C[C@@H](C)N(C)C)(c1ccccc1)c1ccccc1 [Compound B7, L-methadone]
- naloxone-induced withdrawal jumping [1]: reduced in comparison with B1-B4 but is still significant
- Ki [2]: > 1 µM
- ED50 ([3]; Rattus norvegicus, read-out: ED50 chronic): 0.49 mg/kg
- Enhancement of action factor ([3]; rat, in vivo): 0.4x
- ED50 [4]: 0.21 mg/kg
